From US5232849A, “Bacteriocin from lactococcus lactis subspecies lactis” (Quest International Flavors & Food Ingredients Company …, priority 1992, dated 1993)

Experiments:
Assay in all cases: Spectrum of antimicrobial activity
Parameters in all cases: key: + = inhibition; - = no inhibition
Conditions in all cases: pure, titer 3200 AU/ml
L. fermentum 342 = type: cell-based, Lactobacillus fermentum
Description: (§1) Bacteriocin assay. To ascertain if the antibacterial substance is secreted into liquid medium, the cultures were grown in MRS broth and cell free filtrates of turbid cultures were made and the filtrate posted on a seeded semisolid agar overlay of the indicator. Antibacterial activity was quantitated by assigning arbitrary units. One arbitrary unit (AU) was defined as 5 μl of the culture supernatant yielding a definite, clear zone of inhibition on the indicator lawn. The titer was expressed as the reciprocal of the highest dilution of supernatant showing inhibition.

L. fermentum 701 = type: cell-based, Lactobacillus fermentum
Description: as §1

L. casei 326 = type: cell-based, Lactobacillus casei
Description: as §1

L. casei 842 = type: cell-based, Lactobacillus casei
Description: as §1

L. plantarum 346 = type: cell-based, Lactobacillus plantarum
Description: as §1

L. plantarum 355 = type: cell-based, Lactobacillus plantarum
Description: as §1

S. mutans V262 = type: cell-based, Streptococcus mutans
Description: as §1

S. mutans GS5 = type: cell-based, Streptococcus mutans
Description: as §1

P. pentosaceus FBB63C = type: cell-based, Pediococcus pentosaceus
Description: as §1

L. brevis 329 = type: cell-based, Lactobacillus brevis
Description: as §1

L. brevis 888 = type: cell-based, Lactobacillus brevis
Description: as §1

L. lactis LLA 1.0 = type: cell-based, Lactococcus lactis
Description: as §1

L. lactis LLA 2.0 = type: cell-based, Lactococcus lactis
Description: as §1

L. monocytogenes 59 = type: cell-based
Description: as §1

L. monocytogenes 38 = type: cell-based
Description: as §1

L. monocytogenes 08 = type: cell-based
Description: as §1

L. monocytogenes 62 = type: cell-based
Description: as §1

L. monocytogenes 36 = type: cell-based
Description: as §1

L. monocytogenes 04 = type: cell-based
Description: as §1

L. monocytogenes 69 = type: cell-based
Description: as §1

P. acidilactici B = type: cell-based, Pediococcus acidilactici
Description: as §1

P. acidilactici C = type: cell-based, Pediococcus acidilactici
Description: as §1

P. acidilactici A = type: cell-based, Pediococcus acidilactici
Description: as §1

P. acidilactici PAC 1.0 = type: cell-based, Pediococcus acidilactici
Description: as §1

P. acidilactici D = type: cell-based, Pediococcus acidilactici
Description: as §1

B. subtilis amylase^+ = type: cell-based, Bacillus subtilis
Description: as §1

B. subtilis RM125 = type: cell-based, Bacillus subtilis
Description: as §1

Substance: nisin [Nisin Pure]
- inhibition of L. fermentum 342 (L. fermentum 342): +
- inhibition of L. fermentum 701 (L. fermentum 701): +
- inhibition of L. casei 326 (L. casei 326): +
- inhibition of L. casei 842 (L. casei 842): +
- inhibition of L. plantarum 346 (L. plantarum 346): +
- inhibition of L. plantarum 355 (L. plantarum 355): +
- inhibition of S. mutans V262 (S. mutans V262): -
- inhibition of S. mutans GS5 (S. mutans GS5): +
- inhibition of P. pentosaceus FBB63C (P. pentosaceus FBB63C): +
- inhibition of L. brevis 329 (L. brevis 329): +
- inhibition of L. brevis 888 (L. brevis 888): +
- inhibition of L. lactis LLA 1.0 (L. lactis LLA 1.0): +
- inhibition of L. lactis LLA 2.0 (L. lactis LLA 2.0): +
- inhibition of L. monocytogenes 59 (L. monocytogenes 59): +
- inhibition of L. monocytogenes 38 (L. monocytogenes 38): +
- inhibition of L. monocytogenes 08 (L. monocytogenes 08): +
- inhibition of L. monocytogenes 62 (L. monocytogenes 62): +
- inhibition of L. monocytogenes 36 (L. monocytogenes 36): +
- inhibition of L. monocytogenes 04 (L. monocytogenes 04): +
- inhibition of L. monocytogenes 69 (L. monocytogenes 69): +
- inhibition of P. acidilactici B (P. acidilactici B): +
- inhibition of P. acidilactici C (P. acidilactici C): +
- inhibition of P. acidilactici A (P. acidilactici A): +
- inhibition of P. acidilactici PAC 1.0 (P. acidilactici PAC 1.0): +
- inhibition of P. acidilactici D (P. acidilactici D): +
- inhibition of B. subtilis amylase^+ (B. subtilis amylase^+): +
- inhibition of B. subtilis RM125 (B. subtilis RM125): +
